In PubChem BioAssay AID1117275 (Broad Institute, 2014):
Activity calls are given as the source filed them. No rule for the calls is given here.

test system: orthopoxvirus-infected cells, imaging factories/early/late reporters; assay: orthopoxvirus gene expression and factory inhibitors, imaging, high MOI, single point, dry powder (AID 1117275); settings: at 10 µM; hits give high values

SMILES	late gene expression activity score
Cc1ccc(-c2ccc(CN(C)C[C@@H]3Oc4cc(C#C[C@@H](C)O)ccc4S(=O)(=O)N([C@@H](C)CO)C[C@@H]3C)cc2)cc1	73
C[C@@H](O)C#Cc1ccc2c(c1)O[C@@H](CN(C)Cc1ccc(-c3ccccc3Cl)cc1)[C@@H](C)CN([C@@H](C)CO)S2(=O)=O	71
C[C@@H](O)C#Cc1ccc2c(c1)O[C@@H](CN(C)S(=O)(=O)c1ccc(-c3ccccc3)cc1)[C@@H](C)CN([C@@H](C)CO)S2(=O)=O	86
Cc1cccc(-c2ccc(CN(C)C[C@@H]3Oc4cc(C#C[C@@H](C)O)ccc4S(=O)(=O)N([C@@H](C)CO)C[C@@H]3C)cc2)c1	78
C[C@@H](O)C#Cc1ccc2c(c1)O[C@@H](CN(C)Cc1ccc(-c3ccccc3)cc1)[C@@H](C)CN([C@@H](C)CO)S2(=O)=O	17 (inactive)
Cc1ccccc1-c1ccc(CN(C)C[C@@H]2Oc3cc(C#C[C@@H](C)O)ccc3S(=O)(=O)N([C@@H](C)CO)C[C@@H]2C)cc1	67
